# Biological target: recombinant HCV RNA-dependent RNA polymerase (NS5B protein) (Hepatitis C virus genotype 1b, UniProt P26663)
# Experiment: biochemical
# Parameters: species or system HCV-Bk strain
# Conditions: not given
# recombinant HCV RNA-dependent RNA polymerase (NS5B protein), sequence (P26663 2420-3010 limits assumed): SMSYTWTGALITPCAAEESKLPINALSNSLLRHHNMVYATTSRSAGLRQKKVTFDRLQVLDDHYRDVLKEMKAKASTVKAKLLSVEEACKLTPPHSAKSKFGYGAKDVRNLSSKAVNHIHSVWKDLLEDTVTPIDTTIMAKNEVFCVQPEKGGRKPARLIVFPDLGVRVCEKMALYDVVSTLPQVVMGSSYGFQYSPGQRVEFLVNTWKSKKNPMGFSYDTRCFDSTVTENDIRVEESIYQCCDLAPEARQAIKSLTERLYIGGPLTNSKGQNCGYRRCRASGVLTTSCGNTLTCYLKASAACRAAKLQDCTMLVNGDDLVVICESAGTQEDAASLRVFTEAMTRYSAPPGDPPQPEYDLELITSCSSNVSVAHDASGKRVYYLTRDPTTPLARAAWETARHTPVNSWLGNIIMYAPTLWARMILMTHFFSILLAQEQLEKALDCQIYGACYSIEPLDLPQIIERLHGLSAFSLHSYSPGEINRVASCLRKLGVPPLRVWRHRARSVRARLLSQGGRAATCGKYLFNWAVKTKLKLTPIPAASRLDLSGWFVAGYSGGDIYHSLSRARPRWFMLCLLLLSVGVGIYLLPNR
row,SMILES,IC50
1,"C[C@H]1CC[C@H](C(=O)N(c2cc(-c3ccccc3)sc2C(=O)O)C2CCS(=O)(=O)CC2)CC1 [Compound 37, 3-[(1,1-Dioxo-tetrahydro-thiopyran-4-yl)-(trans-4-methyl-cyclohexanecarbonyl)-amino]-5-phenyl-thiophene-2-carboxylic acid]",< 5 µM
2,"CC1CCC(C(=O)N(CC2CCN(C)CC2)c2cc(-c3ccccc3)sc2C(=O)O)CC1 (stereo not shown) [Compound 38, 4-{[(2-carboxy-5-phenyl-thiophen-3-yl)-(4-methyl-cyclohexanecarbonyl)-amino]-methyl}-1-methyl-piperidinium chloride]",< 5 µM
3,"COc1ccc(CN2CCC(N(c3cc(-c4ccccc4)sc3C(=O)O)C(=O)[C@H]3CC[C@H](C)CC3)CC2=O)cc1 (stereo partly shown) [Compound 42, 3-[[1-(4-methoxy-benzyl)-2-oxo-piperidin-4-yl]-(4-methyl-cyclohexanecarbonyl)-amino]-5-phenyl-thiophene-2-carboxylic acid]",< 5 µM
4,"CC1CCC(C(=O)N(c2cc(-c3cccc(F)c3)sc2C(=O)O)C(C)C)C(O)C1 (stereo not shown) [Compound 44, 5-(3-fluoro-phenyl)-3-[(2-hydroxy-4-methyl-cyclohexanecarbonyl)-isopropyl-amino]-thiophene-2-carboxylic acid]",< 5 µM
5,"CO[C@H]1CC[C@H](N(c2cc(-c3ccccc3)sc2C(=O)O)C(=O)[C@H]2CC[C@H](C)CC2)CC1 [Compound 46, 3-[(4-methoxy-cyclohexyl)-(4-methyl-cyclohexanecarbonyl)-amino]-5-phenyl-thiophene-2-carboxylic acid]",< 5 µM
6,"C[C@H]1CC[C@H](C(=O)N(c2cc(-c3ccccc3)sc2C(=O)O)[C@H]2CC[C@@H](O)CC2)CC1 [Compound 47, 3-[(4-methyl-cyclohexanecarbonyl)-(4-hydroxy-cyclohexyl)-amino]-5-phenyl-thiophene-2-carboxylic acid]",< 5 µM
7,"CC(=O)N1CCC(N(C(=O)C2CCC(C)CC2)c2cc(-c3ccccc3)sc2C(=O)O)CC1 (stereo not shown) [Compound 48, 3-[(1-acetyl-piperidin-4-yl)-(4-methyl-cyclohexanecarbonyl)-amino]-5-phenyl-thiophene-2-carboxylic acid]",< 5 µM
8,"CC1CCC(C(=O)N(c2cc(-c3ccccc3)sc2C(=O)O)C2CCC[NH+](C)CC2)CC1 (stereo not shown) [Compound 49, 4-[(2-carboxy-5-phenyl-thiophen-3-yl)-(4-methyl-cyclohexanecarbonyl)-amino]-1-methyl-azepanium chloride]",< 5 µM
9,"C[C@H]1CC[C@H](C(=O)N(c2cc(-c3ccc(F)cc3)sc2C(=O)O)[C@H]2CC[C@H](O)CC2)CC1 [Compound 50, 5-(4-fluoro-phenyl)-3-[(4-hydroxy-cyclohexyl)-(4-methyl-cyclohexanecarbonyl)-amino]-thiophene-2-carboxylic acid]",< 5 µM
10,"CC1CCC(C(=O)N(c2cc(-c3cccc(F)c3)sc2C(=O)O)C2CCC(O)CC2)CC1 (stereo not shown) [Compound 51, 5-(3-fluoro-phenyl)-3-[(4-hydroxy-cyclohexyl)-(4-methyl-cyclohexanecarbonyl)-amino]-thiophene-2-carboxylic acid]",< 5 µM
11,"CC1=CCC(C(=O)N(c2cc(-c3ccc(F)cc3)sc2C(=O)O)C(C)C)CC1 (stereo not shown) [Compound 53, 5-(4-fluoro-phenyl)-3-[isopropyl-(4-methyl-cyclohex-3-enecarbonyl)-amino]-thiophene-2-carboxylic acid]",< 5 µM
12,"CC1CCC(C(=O)N(c2cc(-c3ccc(Cl)cc3)sc2C(=O)O)C2CCC(O)CC2)CC1 (stereo not shown) [Compound 59, 5-(4-chloro-phenyl)-3-[(4-hydroxy-cyclohexyl)-(4-methyl-cyclohexanecarbonyl)-amino]-thiophene-2-carboxylic acid]",< 5 µM

# Same assay, conditions: read-out: Activity (polymerase activity, IC50)
row,SMILES,IC50
1,"CC1CCC(C(=O)N(c2cc(-c3ccccc3)sc2C(=O)O)C(C)CN=[N+]=[N-])CC1 (stereo not shown) [Compound 43, 3-[(2-azido-1-methyl-ethyl)-(4-methyl-cyclohexanecarbonyl)-amino]-5-phenyl-thiophene-2-carboxylic acid]",< 5 µM

# — patent publication US8829030B2 (priority 2002, dated 2014)
